Like-named read-outs stand apart in the source and are kept apart here.
How the values were obtained:
[1] = test system: tetrabenazine-induced sedation; experiment: Mouse antidepressant (antitetrabenazine) test: prevention of tetrabenazine-induced ptosis and loss of exploratory activity; conditions: for ED50: Mus musculus, po; for No. of Mice Blocked, EXPLORATORY ACTIVITY / No. of Mice Blocked, PTOSIS: 1 h after amantadine
mice = conditions: for NUMBER OF MICE DEAD: N=10; for Effect of amantadine on molindone toxicity (mortality): mice, oral
mouse brain MAO [2] = biological target: T1, mouse brain MAO (Mus musculus, UniProt Q64133); experiment: biochemical
T1 sequence (Q64133 1-526): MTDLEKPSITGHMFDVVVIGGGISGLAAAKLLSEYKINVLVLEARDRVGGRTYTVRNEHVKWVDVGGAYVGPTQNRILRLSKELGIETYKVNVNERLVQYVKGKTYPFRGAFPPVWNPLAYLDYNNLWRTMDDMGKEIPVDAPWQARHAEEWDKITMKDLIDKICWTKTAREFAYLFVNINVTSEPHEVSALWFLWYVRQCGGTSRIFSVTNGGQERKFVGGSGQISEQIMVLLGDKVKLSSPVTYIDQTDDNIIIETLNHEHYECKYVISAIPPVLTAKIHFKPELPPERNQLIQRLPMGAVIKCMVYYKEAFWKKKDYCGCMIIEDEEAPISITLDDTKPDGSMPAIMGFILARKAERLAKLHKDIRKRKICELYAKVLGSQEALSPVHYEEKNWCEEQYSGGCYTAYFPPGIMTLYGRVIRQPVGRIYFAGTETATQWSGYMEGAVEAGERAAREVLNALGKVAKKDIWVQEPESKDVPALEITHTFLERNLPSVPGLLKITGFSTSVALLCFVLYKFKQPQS

mouse brain MAO [3] = biological target: T1, mouse brain MAO; conditions: substrate 5 HT
[4] = 1 mg/kg oral (free base), 1 h, N=10
[5] = 3 mg/kg oral (free base), 1 h, N=10
[6] = 9 mg/kg oral (free base), 1 h, N=10
[7] = 20 mg/kg oral (free base), 0.5 h, N=20
[8] = 20 mg/kg oral (free base), 1 h, N=20
[9] = 20 mg/kg oral (free base), 2 h, N=20
[10] = 20 mg/kg oral (free base), 4 h, N=20
[11] = 27 mg/kg oral (free base), 1 h, N=10
[12] = 81 mg/kg oral (free base), 1 h, N=10
[13] = amantadine 2 mg/kg oral alone, N=20
[14] = amantadine 6 mg/kg oral alone, N=20
[15] = amantadine 18 mg/kg oral alone, N=20
[16] = amantadine 54 mg/kg oral alone, N=20
[17] = amantadine alone, oral, 1 h, free base basis, N=20 (Table 2)

SMILES: NC12CC3CC(CC(C3)C1)C2 [Amantadine, 1-adamantanamine]
- NUMBER OF MICE BLOCKED, EXPLORATORY ACTIVITY [1, 4]: 0
- NUMBER OF MICE BLOCKED, PTOSIS [1, 4]: 1
- NUMBER OF MICE BLOCKED, EXPLORATORY ACTIVITY [1, 5]: 0
- NUMBER OF MICE BLOCKED, PTOSIS [1, 5]: 1
- NUMBER OF MICE BLOCKED, EXPLORATORY ACTIVITY [1, 6]: 4
- NUMBER OF MICE BLOCKED, PTOSIS [1, 6]: 5
- NUMBER OF MICE BLOCKED, EXPLORATORY ACTIVITY [1, 7]: 1
- NUMBER OF MICE BLOCKED, PTOSIS [1, 7]: 4
- NUMBER OF MICE BLOCKED, EXPLORATORY ACTIVITY [1, 8]: 8
- NUMBER OF MICE BLOCKED, PTOSIS [1, 8]: 13
- NUMBER OF MICE BLOCKED, EXPLORATORY ACTIVITY [1, 9]: 6
- NUMBER OF MICE BLOCKED, PTOSIS [1, 9]: 11
- NUMBER OF MICE BLOCKED, EXPLORATORY ACTIVITY [1, 10]: 0
- NUMBER OF MICE BLOCKED, PTOSIS [1, 10]: 2
- NUMBER OF MICE BLOCKED, EXPLORATORY ACTIVITY [1, 11]: 4
- NUMBER OF MICE BLOCKED, PTOSIS [1, 11]: 7
- NUMBER OF MICE BLOCKED, EXPLORATORY ACTIVITY [1, 12]: 8
- NUMBER OF MICE BLOCKED, PTOSIS [1, 12]: 10
- ED50 ([1]; 1 h, read-out: ED50, E[…], oral, free base basis, 1 h after drug (Table 1)): 24 mg/kg
- ED50 ([1]; 1 h, read-out: ED50, PTOSIS, oral, free base basis, 1 h after drug (Table 1)): 9.6 mg/kg
- No. of Mice Blocked, EXPLORATORY ACTIVITY [1, 13]: 0
- No. of Mice Blocked, PTOSIS [1, 13]: 2
- No. of Mice Blocked, EXPLORATORY ACTIVITY [1, 14]: 2
- No. of Mice Blocked, PTOSIS [1, 14]: 4
- No. of Mice Blocked, EXPLORATORY ACTIVITY [1, 15]: 12
- No. of Mice Blocked, PTOSIS [1, 15]: 17
- No. of Mice Blocked, EXPLORATORY ACTIVITY [1, 16]: 16
- No. of Mice Blocked, PTOSIS [1, 16]: 19
- ED50, EXPLORATORY ACTIVITY, Amantadine [1, 17]: 16.6 mg/kg
- ED50, PTOSIS, Amantadine [1, 17]: 9.4 mg/kg
- ED50, PTOSIS ([1]; oral, free base basis, 1 h after drug (Table 1), 60 min): 9.4 mg/kg
- NUMBER OF MICE DEAD (mice; amantadine 267 mg/kg oral alone, 0.5 h): 0
- NUMBER OF MICE DEAD (mice; amantadine 267 mg/kg oral alone, 1 h): 0
- NUMBER OF MICE DEAD (mice; amantadine 267 mg/kg oral alone, 2 h): 0
- NUMBER OF MICE DEAD (mice; amantadine 267 mg/kg oral alone, 4 h): 0
- NUMBER OF MICE DEAD (mice; amantadine 267 mg/kg oral alone, 24 h): 0
- NUMBER OF MICE DEAD (mice; amantadine 267 mg/kg oral alone, 336 h): 0
- NUMBER OF MICE DEAD (mice; amantadine 400 mg/kg oral alone, 0.5 h): 1
- NUMBER OF MICE DEAD (mice; amantadine 400 mg/kg oral alone, 1 h): 1
- NUMBER OF MICE DEAD (mice; amantadine 400 mg/kg oral alone, 2 h): 1
- NUMBER OF MICE DEAD (mice; amantadine 400 mg/kg oral alone, 4 h): 1
- NUMBER OF MICE DEAD (mice; amantadine 400 mg/kg oral alone, 24 h): 1
- NUMBER OF MICE DEAD (mice; amantadine 400 mg/kg oral alone, 336 h): 1
- NUMBER OF MICE DEAD (mice; amantadine 600 mg/kg oral alone, 0.5 h): 4
- NUMBER OF MICE DEAD (mice; amantadine 600 mg/kg oral alone, 1 h): 4
- NUMBER OF MICE DEAD (mice; amantadine 600 mg/kg oral alone, 2 h): 4
- NUMBER OF MICE DEAD (mice; amantadine 600 mg/kg oral alone, 4 h): 4
- NUMBER OF MICE DEAD (mice; amantadine 600 mg/kg oral alone, 24 h): 5
- NUMBER OF MICE DEAD (mice; amantadine 600 mg/kg oral alone, 336 h): 5
- NUMBER OF MICE DEAD (mice; amantadine 900 mg/kg oral alone, 0.5 h): 8
- NUMBER OF MICE DEAD (mice; amantadine 900 mg/kg oral alone, 1 h): 8
- NUMBER OF MICE DEAD (mice; amantadine 900 mg/kg oral alone, 2 h): 8
- NUMBER OF MICE DEAD (mice; amantadine 900 mg/kg oral alone, 4 h): 8
- NUMBER OF MICE DEAD (mice; amantadine 900 mg/kg oral alone, 24 h): 8
- NUMBER OF MICE DEAD (mice; amantadine 900 mg/kg oral alone, 336 h): 8
- NUMBER OF MICE DEAD (mice; amantadine 1350 mg/kg oral alone, 0.5 h): 10
- NUMBER OF MICE DEAD (mice; amantadine 1350 mg/kg oral alone, 1 h): 10
- NUMBER OF MICE DEAD (mice; amantadine 1350 mg/kg oral alone, 2 h): 10
- NUMBER OF MICE DEAD (mice; amantadine 1350 mg/kg oral alone, 4 h): 10
- NUMBER OF MICE DEAD (mice; amantadine 1350 mg/kg oral alone, 24 h): 10
- NUMBER OF MICE DEAD (mice; amantadine 1350 mg/kg oral alone, 336 h): 10
- Effect of amantadine on molindone toxicity (mortality) (mice): decreases the toxicity of molindone
- Effect of amantadine on molindone toxicity (mortality) (mice; listed as amantadine hydrochloride): reduces molindone hydrochloride lethal toxicity

SMILES: NNCCc1ccccc1 [PHENELZINE . SO4]
- IC50 (mouse brain MAO [2]): 4 µM
- % INHIBITION (mouse brain MAO [3]; final conc. 10^-4 m/l): 88%
- % INHIBITION (mouse brain MAO [3]; final conc. 10^-5 m/l): 81%
- % INHIBITION (mouse brain MAO [3]; final conc. 10^-6 m/l): 3%

Source: patent publication US4148896A, “Antidepressant combination” (E. I. Du Pont de Nemours and Company, priority 1978, dated 1979)
